Source: patent US10233173B2, “Substituted 1,2,3-triazoles as NR2B-selective NMDA modulators” (JANSSEN PHARMACEUTICA NV, priority 2016, dated 2019)

Target: human GluN1/GluN2B NMDA receptors (Homo sapiens, UniProt Q05586+Q13224)
Assay: Cell-based calcium flux (FLIPR) assay on cloned human NR1/NR2B ion channels expressed in mammalian cells
Conditions: standard assay; glutamate at ~EC80; FLIPR calcium flux
Procedure, shortened: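 Calcium influx followed by FLIPR fluorescence after 5 min compound exposure and a further 5 min co-agonist challenge: 10 μM glycine with glutamate at ~EC80 (standard) or EC40 (HTS).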

human GluN1/GluN2B NMDA receptors, sequence (Q13224 27-1484, other chains not shown): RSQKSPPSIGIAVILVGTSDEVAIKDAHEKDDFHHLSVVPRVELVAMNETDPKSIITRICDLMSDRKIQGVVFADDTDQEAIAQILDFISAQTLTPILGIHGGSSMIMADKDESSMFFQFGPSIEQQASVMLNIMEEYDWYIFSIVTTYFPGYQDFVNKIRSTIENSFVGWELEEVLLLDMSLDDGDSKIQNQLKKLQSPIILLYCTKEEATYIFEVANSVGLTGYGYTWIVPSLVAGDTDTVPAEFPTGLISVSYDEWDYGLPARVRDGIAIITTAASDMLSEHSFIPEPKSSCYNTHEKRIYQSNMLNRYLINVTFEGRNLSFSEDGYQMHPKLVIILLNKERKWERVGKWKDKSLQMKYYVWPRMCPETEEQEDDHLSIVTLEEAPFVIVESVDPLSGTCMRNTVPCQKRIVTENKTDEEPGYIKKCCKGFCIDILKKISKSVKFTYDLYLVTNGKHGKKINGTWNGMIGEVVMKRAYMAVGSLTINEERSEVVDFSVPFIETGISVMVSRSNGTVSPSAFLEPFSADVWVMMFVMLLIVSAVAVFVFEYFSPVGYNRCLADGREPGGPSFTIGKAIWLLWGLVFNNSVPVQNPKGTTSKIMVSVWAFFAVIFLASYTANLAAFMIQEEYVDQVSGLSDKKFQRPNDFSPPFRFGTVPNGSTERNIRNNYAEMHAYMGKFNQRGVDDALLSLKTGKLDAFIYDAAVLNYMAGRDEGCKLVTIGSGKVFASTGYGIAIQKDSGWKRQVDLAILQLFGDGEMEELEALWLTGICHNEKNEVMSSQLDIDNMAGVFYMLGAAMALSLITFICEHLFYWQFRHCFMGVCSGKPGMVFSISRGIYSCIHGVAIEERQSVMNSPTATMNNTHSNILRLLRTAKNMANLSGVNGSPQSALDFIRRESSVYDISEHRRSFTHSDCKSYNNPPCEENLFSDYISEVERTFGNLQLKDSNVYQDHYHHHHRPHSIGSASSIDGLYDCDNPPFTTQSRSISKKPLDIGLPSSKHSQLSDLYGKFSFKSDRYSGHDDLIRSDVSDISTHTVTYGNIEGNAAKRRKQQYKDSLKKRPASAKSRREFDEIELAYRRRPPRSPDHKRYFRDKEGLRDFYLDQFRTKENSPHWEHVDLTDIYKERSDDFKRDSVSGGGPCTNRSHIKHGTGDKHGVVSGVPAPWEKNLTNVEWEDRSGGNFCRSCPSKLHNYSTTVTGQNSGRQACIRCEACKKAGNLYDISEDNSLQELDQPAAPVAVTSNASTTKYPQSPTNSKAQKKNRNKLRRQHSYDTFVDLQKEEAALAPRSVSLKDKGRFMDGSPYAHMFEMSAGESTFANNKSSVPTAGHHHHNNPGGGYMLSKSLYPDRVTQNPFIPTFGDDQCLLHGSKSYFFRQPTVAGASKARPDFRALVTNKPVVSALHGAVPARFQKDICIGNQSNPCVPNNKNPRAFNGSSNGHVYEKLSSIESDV

Going from `Cc1ccc(F)c(-n2cc(COc3ncc(F)c(C)n3)nn2)c1` [Example 486, 5-Fluoro-2-[[1-(2-fluoro-5-methyl-phenyl)triazol-4-yl]methoxy]-4-methyl-pyrimidine] to `Cc1nc(OCc2cn(-c3ccc(F)c(OC(F)F)c3)nn2)ncc1F` [Example 493, 2-[[1-[3-(Difluoromethoxy)-4-fluoro-phenyl]triazol-4-yl]methoxy]-5-fluoro-4-methyl-pyrimidine], the IC50 falls from over 2.99 µM to 0.004 µM. The second is the more potent here.

Compared with `Cc1cc(F)ccc1-n1cc(COc2ncc(F)cn2)nn1` [Example 487, 5-Fluoro-2-[[1-(4-fluoro-2-methyl-phenyl)triazol-4-yl]methoxy]pyrimidine], `Cc1cc(F)ccc1-n1cc(COc2ncc(Cl)cn2)nn1` [Example 489, 5-Chloro-2-[[1-(4-fluoro-2-methyl-phenyl)triazol-4-yl]methoxy]pyrimidine] is 3.7-fold lower in IC50: 16.2 µM for the first, 4.42 µM for the second. The second is the more potent here.

`COc1cnc(OCc2cn(-c3ccc(F)cc3C)nn2)nc1` [Example 488, 2-[[1-(4-Fluoro-2-methyl-phenyl)triazol-4-yl]methoxy]-5-methoxy-pyrimidine] and `Cc1cnc(OCc2cn(-c3ccc(F)cc3C)nn2)nc1` [Example 490, 2-[[1-(4-Fluoro-2-methyl-phenyl)triazol-4-yl]methoxy]-5-methyl-pyrimidine] are within 1.5-fold of each other in IC50: 2.65 µM for the first, 2.44 µM for the second.

Going from `CCc1cnc(OCc2cn(-c3ccc(F)cc3C)nn2)nc1` [Example 491, 5-Ethyl-2-[[1-(4-fluoro-2-methyl-phenyl)triazol-4-yl]methoxy]pyrimidine] to `Cc1cnc(OCc2cn(-c3ccc(C)c(OC(F)F)c3)nn2)nc1` [Example 524, 2-[[1-[3-(Difluoromethoxy)-4-methyl-phenyl]triazol-4-yl]methoxy]-5-methyl-pyrimidine], the IC50 falls from 1.17 µM to 0.028 µM (42-fold).

First: Fc1cnc(OCc2cn(-c3ccc(F)c(OC(F)F)c3)nn2)nc1 [Example 492, 2-[[1-[3-(Difluoromethoxy)-4-fluoro-phenyl]triazol-4-yl]methoxy]-5-fluoro-pyrimidine]
Second: Nc1cnc(OCc2cn(-c3ccc(F)c(OC(F)F)c3)nn2)nc1 [Example 502, 2-[[1-[3-(Difluoromethoxy)-4-fluoro-phenyl]triazol-4-yl]methoxy]pyrimidin-5-amine]
The IC50 of the first is 5.2-fold lower: 0.026 µM for the first, 0.136 µM for the second.

First: CCc1ccnc(OCc2cn(-c3ccc(F)c(OC(F)F)c3)nn2)n1 [Example 495, 2-f[[1-[3-(Difluoromethoxy)-4-fluoro-phenyl]triazol-4-yl]methoxy]-4-ethyl-pyrimidine]
Second: OCc1ccnc(OCc2cn(-c3ccc(F)c(OC(F)F)c3)nn2)n1 [Example 498, [2-[[1-[3-(Difluoromethoxy)-4-fluoro-phenyl]triazol-4-yl]methoxy]pyrimidin-4-yl]methanol]
The IC50 of the first is 1.9-fold lower: 0.01 µM for the first, 0.019 µM for the second. The first is the more potent here.

Compared with `CC(C)c1ccnc(OCc2cn(-c3ccc(F)c(OC(F)F)c3)nn2)n1` [Example 496, 2-[[1-[3-(Difluoromethoxy)-4-fluoro-phenyl]triazol-4-yl]methoxy]-4-isopropyl-pyrimidine], `Nc1ccnc(OCc2cn(-c3ccc(F)c(OC(F)F)c3)nn2)n1` [Example 501, 2-[[1-[3-(Difluoromethoxy)-4-fluoro-phenyl]triazol-4-yl]methoxy]pyrimidin-4-amine] is 2.2-fold lower in IC50: 0.114 µM for the first, 0.052 µM for the second.

Compared with `COc1ccnc(OCc2cn(-c3ccc(F)c(OC(F)F)c3)nn2)n1` [Example 497, 2-[[1-[3-(Difluoromethoxy)-4-fluoro-phenyl]triazol-4-yl]methoxy]-4-methoxy-pyrimidine], `COCc1ccnc(OCc2cn(-c3ccc(F)c(OC(F)F)c3)nn2)n1` [Example 499, 2-[[1-[3-(Difluoromethoxy)-4-fluoro-phenyl]triazol-4-yl]methoxy]-4-(methoxymethyl)pyrimidine] is 1.8-fold lower in IC50: 0.028 µM for the first, 0.016 µM for the second. The second is the more potent here.

Going from `CC(C)(O)c1cnc(OCc2cn(-c3ccc(F)c(OC(F)F)c3)nn2)nc1` [Example 500, 2-[2-[[1-[3-(Difluoromethoxy)-4-fluoro-phenyl]triazol-4-yl]methoxy]pyrimidin-5-yl]propan-2-ol] to `Cc1ccc(-n2cc(COc3ncc(C(C)(C)O)cn3)nn2)cc1OC(F)F` [Example 526, 2-[2-[[1-[3-(Difluoromethoxy)-4-methyl-phenyl]triazol-4-yl]methoxy]pyrimidin-5-yl]propan-2-ol], the IC50 rises from 0.068 µM to 0.425 µM (6.2-fold). The first is the more potent here.

`CNc1ccnc(OCc2cn(-c3ccc(F)c(OC(F)F)c3)nn2)n1` [Example 503, 2-[[1-[3-(Difluoromethoxy)-4-fluoro-phenyl]triazol-4-yl]methoxy]-N-methyl-pyrimidin-4-amine] and `CCNc1ccnc(OCc2cn(-c3ccc(F)c(OC(F)F)c3)nn2)n1` [Example 504, 2-((1-(3-(Difluoromethoxy)-4-fluorophenyl)-1H-1,2,3-triazol-4-yl)methoxy)-N-ethylpyrimidin-4-amine] are within 1.5-fold of each other in IC50: 0.008 µM for the first, 0.007 µM for the second.

Compared with `CN(C)c1ccnc(OCc2cn(-c3ccc(F)c(OC(F)F)c3)nn2)n1` [Example 505, 2-[[1-[3-(Difluoromethoxy)-4-fluoro-phenyl]triazol-4-yl]methoxy]-N,N-dimethyl-pyrimidin-4-amine], `CNCc1ccnc(OCc2cn(-c3ccc(F)c(OC(F)F)c3)nn2)n1` [Example 520, 1-(2-((1-(3-(Difluoromethoxy)-4-fluorophenyl)-1H-1,2,3-triazol-4-yl)methoxy)pyrimidin-4-yl)-N-methylmethanamine] is 96-fold higher in IC50: 0.007 µM for the first, 0.672 µM for the second. The first is the more potent here.

First: Fc1ccc(-n2cc(COc3nccc(-c4ccccc4)n3)nn2)cc1OC(F)F [Example 506, 2-[[1-[3-(Difluoromethoxy)-4-fluoro-phenyl]triazol-4-yl]methoxy]-4-phenyl-pyrimidine]
Second: Fc1ccc(-n2cc(COc3nccc(N4CC(F)C4)n3)nn2)cc1OC(F)F [Example 510, 2-[[1-[3-(Difluoromethoxy)-4-fluoro-phenyl]triazol-4-yl]methoxy]-4-(3-fluoroazetidin-1-yl)pyrimidine]
The IC50 of the first is 390-fold higher: 9.75 µM for the first, 0.025 µM for the second. The second is the more potent here.

First: Fc1ccc(-n2cc(COc3ncc(N4CC(F)C4)cn3)nn2)cc1OC(F)F [Example 507, 2-[[1-[3-(Difluoromethoxy)-4-fluoro-phenyl]triazol-4-yl]methoxy]-5-(3-fluoroazetidin-1-yl)pyrimidine]
Second: Fc1ccc(-n2cc(COc3ncc(N4CC(F)(F)C4)cn3)nn2)cc1OC(F)F [Example 508, 5-(3,3-Difluoroazetidin-1-yl)-2-[[1-[3-(difluoromethoxy)-4-fluoro-phenyl]triazol-4-yl]methoxy]pyrimidine]
The IC50 of the first is 2.4-fold lower: 0.008 µM for the first, 0.019 µM for the second.

First: Fc1ccc(-n2cc(COc3nccc(N4CC(F)(F)C4)n3)nn2)cc1OC(F)F [Example 511, 4-(3,3-Difluoroazetidin-1-yl)-2-[[1-[3-(difluoromethoxy)-4-fluoro-phenyl]triazol-4-yl]methoxy]pyrimidine]
Second: Fc1ccc(-n2cc(COc3nccc(N4CC[C@@H](F)C4)n3)nn2)cc1OC(F)F [Example 512, (R)-2-[[1-[3-(Difluoromethoxy)-4-fluoro-phenyl]triazol-4-yl]methoxy]-4-[(3R)-3-fluoropyrrolidin-1-yl]pyrimidine]
The IC50 of the first is 7.5-fold lower: 0.041 µM for the first, 0.308 µM for the second.

`Cc1nc(OCc2cn(-c3ccc(F)c(OC(F)F)c3)nn2)ncc1Cl` [Example 513, 5-Chloro-2-[[1-[3-(difluoromethoxy)-4-fluoro-phenyl]triazol-4-yl]methoxy]-4-methyl-pyrimidine] and `Cc1cnc(OCc2cn(-c3ccc(F)c(OC(F)F)c3)nn2)nc1N` [Example 514, 2-[[1-[3-(Difluoromethoxy)-4-fluoro-phenyl]triazol-4-yl]methoxy]-5-methyl-pyrimidin-4-amine] are within 1.5-fold of each other in IC50: 0.004 µM for the first, 0.005 µM for the second.

`CNc1nc(OCc2cn(-c3ccc(F)c(OC(F)F)c3)nn2)ncc1C` [Example 515, 2-[[1-[3-(Difluoromethoxy)-4-fluoro-phenyl]triazol-4-yl]methoxy]-N,5-dimethyl-pyrimidin-4-amine] and `CNc1nc(OCc2cn(-c3ccc(F)c(OC(F)F)c3)nn2)ncc1F` [Example 518, 2-[[1-[3-(Difluoromethoxy)-4-fluoro-phenyl]triazol-4-yl]methoxy]-5-fluoro-N-methyl-pyrimidin-4-amine] are within 1.5-fold of each other in IC50: 0.099 µM for the first, 0.092 µM for the second.

`Cc1cnc(OCc2cn(-c3ccc(F)c(OC(F)F)c3)nn2)nc1N(C)C` [Example 516, 2-[[1-[3-(Difluoromethoxy)-4-fluoro-phenyl]triazol-4-yl]methoxy]-N,N,5-trimethyl-pyrimidin-4-amine] and `Cc1ccc(-n2cc(COc3ncc(C)c(N)n3)nn2)cc1OC(F)F` [Example 521, 2-[[1-[3-(Difluoromethoxy)-4-methyl-phenyl]triazol-4-yl]methoxy]-5-methyl-pyrimidin-4-amine] are within 1.5-fold of each other in IC50: 0.017 µM for the first, 0.021 µM for the second.

First: Fc1ccc(-n2cc(COc3ncc(F)c(NCC(F)F)n3)nn2)cc1OC(F)F [Example 517, N-(2,2-Difluoroethyl)-2-[[1-[3-(difluoromethoxy)-4-fluoro-phenyl]triazol-4-yl]methoxy]-5-fluoro-pyrimidin-4-amine]
Second: Fc1ccc(-n2cc(COc3ncc(F)c(NC4CC4)n3)nn2)cc1OC(F)F [Example 519, N-Cyclopropyl-2-((1-(3-(difluoromethoxy)-4-fluorophenyl)-1H-1,2,3-triazol-4-yl)methoxy)-5-fluoropyrimidin-4-amine]
The IC50 of the first is 4.5-fold higher: 0.912 µM for the first, 0.204 µM for the second. The second is the more potent here.

First: CC(=O)c1cnc(OCc2cn(-c3ccc(C)c(OC(F)F)c3)nn2)nc1 [Example 522, 1-[2-[[1-[3-(Difluoromethoxy)-4-methyl-phenyl]triazol-4-yl]methoxy]pyrimidin-5-yl]ethanone]
Second: Cc1ccc(-n2cc(COc3ncc(Br)cn3)nn2)cc1OC(F)F [Example 525, 5-Bromo-2-[[1-[3-(difluoromethoxy)-4-methyl-phenyl]triazol-4-yl]methoxy]pyrimidine]
The IC50 of the first is 2.3-fold higher: 0.093 µM for the first, 0.04 µM for the second.

`Cc1ccnc(OCc2cn(-c3ccc(C)c(OC(F)F)c3)nn2)n1` [Example 523, 2-[[1-[3-(Difluoromethoxy)-4-methyl-phenyl]triazol-4-yl]methoxy]-4-methyl-pyrimidine] and `COCc1ccnc(OCc2cn(-c3ccc(C)c(OC(F)F)c3)nn2)n1` [Example 527, 2-[[1-[3-(Difluoromethoxy)-4-methyl-phenyl]triazol-4-yl]methoxy]-4-(methoxymethyl)pyrimidine] are within 1.5-fold of each other in IC50: 0.114 µM for the first, 0.132 µM for the second.
